{"source": "the supplement of paper PMC10307832", "assay_in_all_cases": "relative viability (nuclei count vs DMSO), 5 days (fraction); higher = more cells survive", "key": {"EKVX": {"test_system": "EKVX", "summary_of_the_method": "(§1)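 One day after seeding in 1536-well plates, lung cancer cell lines were dosed by pin tool. Dosing was either single-drug or a fixed anchor-drug dose plus five library-drug doses (not always all listed) in √10 steps. After 5 days, nuclei were stained in one fix-and-stain step and counted on 4× images, and relative viability is the nuclei count of treated wells over that of vehicle wells, given as the median of duplicate plates.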"}, "NCI-H1355": {"test_system": "NCI-H1355", "summary_of_the_method": "as §1"}, "NCI-H1993": {"test_system": "NCI-H1993", "summary_of_the_method": "as §1"}, "NCI-H2170": {"test_system": "NCI-H2170", "summary_of_the_method": "as §1"}, "NCI-H1944": {"test_system": "NCI-H1944", "summary_of_the_method": "as §1"}, "NCI-H661": {"test_system": "NCI-H661", "summary_of_the_method": "as §1"}, "SK-MES-1": {"test_system": "SK-MES-1", "summary_of_the_method": "as §1"}, "NCI-H727": {"test_system": "NCI-H727", "summary_of_the_method": "as §1"}, "NCI-H1666": {"test_system": "NCI-H1666", "summary_of_the_method": "as §1"}, "HOP-62": {"test_system": "HOP-62", "summary_of_the_method": "as §1"}, "LOU-NH91": {"test_system": "LOU-NH91", "summary_of_the_method": "as §1"}, "NCI-H441": {"test_system": "NCI-H441", "summary_of_the_method": "as §1"}, "NCI-H2126": {"test_system": "NCI-H2126", "summary_of_the_method": "as §1"}, "BEN": {"test_system": "BEN", "summary_of_the_method": "as §1"}, "LCLC-103H": {"test_system": "LCLC-103H", "summary_of_the_method": "as §1"}, "HCC-827": {"test_system": "HCC-827", "summary_of_the_method": "as §1"}, "NCI-H647": {"test_system": "NCI-H647", "summary_of_the_method": "as §1"}, "PC-14": {"test_system": "PC-14", "summary_of_the_method": "as §1"}, "LK-2": {"test_system": "LK-2", "summary_of_the_method": "as §1"}, "LXF-289": {"test_system": "LXF-289", "summary_of_the_method": "as §1"}, "ChaGo-K-1": {"test_system": "ChaGo-K-1", "summary_of_the_method": "as §1"}, "NCI-H1437": {"test_system": "NCI-H1437", "summary_of_the_method": "as §1"}, "RERF-LC-KJ": {"test_system": "RERF-LC-KJ", "summary_of_the_method": "as §1"}}}
{"compound": "CN1CCN(CCOc2cc(OC3CCOCC3)c3c(Nc4c(Cl)ccc5c4OCO5)ncnc3c2)CC1", "note": "[Saracatinib] + CC(=O)c1c(C)c2cnc(Nc3ccc(N4CCNCC4)cn3)nc2n(C2CCCC2)c1=O [Palbociclib] (partner 0.5 µM)", "values": [{"measurement": "relative viability", "setting": "EKVX; first compound 0.02 µM", "value": 0.38}, {"measurement": "relative viability", "setting": "EKVX; first compound 0.6325 µM", "value": 0.306}, {"measurement": "relative viability", "setting": "EKVX; first compound 2 µM", "value": 0.146}, {"measurement": "relative viability", "setting": "NCI-H1355; first compound 0.02 µM", "value": 0.401}, {"measurement": "relative viability", "setting": "NCI-H1355; first compound 0.2 µM", "value": 0.432}, {"measurement": "relative viability", "setting": "NCI-H1355; first compound 0.6325 µM", "value": 0.416}, {"measurement": "relative viability", "setting": "NCI-H1355; first compound 2 µM", "value": 0.371}, {"measurement": "relative viability", "setting": "NCI-H1993; first compound 0.02 µM", "value": 0.65}, {"measurement": "relative viability", "setting": "NCI-H1993; first compound 0.2 µM", "value": 0.584}, {"measurement": "relative viability", "setting": "NCI-H1993; first compound 0.6325 µM", "value": 0.701}, {"measurement": "relative viability", "setting": "NCI-H1993; first compound 2 µM", "value": 0.523}, {"measurement": "relative viability", "setting": "NCI-H2170; first compound 0.02 µM", "value": 0.39}, {"measurement": "relative viability", "setting": "NCI-H2170; first compound 0.2 µM", "value": 0.39}, {"measurement": "relative viability", "setting": "NCI-H2170; first compound 0.6325 µM", "value": 0.441}, {"measurement": "relative viability", "setting": "NCI-H2170; first compound 2 µM", "value": 0.354}, {"measurement": "relative viability", "setting": "NCI-H1944; first compound 0.02 µM", "value": 0.3}, {"measurement": "relative viability", "setting": "NCI-H1944; first compound 0.2 µM", "value": 0.281}, {"measurement": "relative viability", "setting": "NCI-H1944; first compound 0.6325 µM", "value": 0.305}, {"measurement": "relative viability", "setting": "NCI-H1944; first compound 2 µM", "value": 0.255}, {"measurement": "relative viability", "setting": "NCI-H661; first compound 0.02 µM", "value": 0.393}, {"measurement": "relative viability", "setting": "NCI-H661; first compound 0.2 µM", "value": 0.359}, {"measurement": "relative viability", "setting": "NCI-H661; first compound 0.6325 µM", "value": 0.395}, {"measurement": "relative viability", "setting": "NCI-H661; first compound 2 µM", "value": 0.306}, {"measurement": "relative viability", "setting": "SK-MES-1; first compound 0.02 µM", "value": 0.3}, {"measurement": "relative viability", "setting": "SK-MES-1; first compound 0.2 µM", "value": 0.31}, {"measurement": "relative viability", "setting": "SK-MES-1; first compound 0.6325 µM", "value": 0.309}, {"measurement": "relative viability", "setting": "SK-MES-1; first compound 2 µM", "value": 0.256}, {"measurement": "relative viability", "setting": "NCI-H727; first compound 0.02 µM", "value": 0.604}, {"measurement": "relative viability", "setting": "NCI-H727; first compound 0.2 µM", "value": 0.692}, {"measurement": "relative viability", "setting": "NCI-H727; first compound 0.6325 µM", "value": 0.674}, {"measurement": "relative viability", "setting": "NCI-H727; first compound 2 µM", "value": 0.551}, {"measurement": "relative viability", "setting": "NCI-H1666; first compound 0.02 µM", "value": 0.684}, {"measurement": "relative viability", "setting": "NCI-H1666; first compound 0.2 µM", "value": 0.474}, {"measurement": "relative viability", "setting": "NCI-H1666; first compound 0.6325 µM", "value": 0.599}, {"measurement": "relative viability", "setting": "NCI-H1666; first compound 2 µM", "value": 0.651}, {"measurement": "relative viability", "setting": "HOP-62; first compound 0.02 µM", "value": 0.452}, {"measurement": "relative viability", "setting": "HOP-62; first compound 0.2 µM", "value": 0.396}, {"measurement": "relative viability", "setting": "HOP-62; first compound 0.6325 µM", "value": 0.459}, {"measurement": "relative viability", "setting": "HOP-62; first compound 2 µM", "value": 0.477}, {"measurement": "relative viability", "setting": "LOU-NH91; first compound 0.02 µM", "value": 0.487}, {"measurement": "relative viability", "setting": "LOU-NH91; first compound 0.2 µM", "value": 0.551}, {"measurement": "relative viability", "setting": "LOU-NH91; first compound 0.6325 µM", "value": 0.569}, {"measurement": "relative viability", "setting": "LOU-NH91; first compound 2 µM", "value": 0.49}, {"measurement": "relative viability", "setting": "NCI-H441; first compound 0.02 µM", "value": 0.243}, {"measurement": "relative viability", "setting": "NCI-H441; first compound 0.2 µM", "value": 0.196}, {"measurement": "relative viability", "setting": "NCI-H441; first compound 0.6325 µM", "value": 0.199}, {"measurement": "relative viability", "setting": "NCI-H441; first compound 2 µM", "value": 0.182}, {"measurement": "relative viability", "setting": "NCI-H2126; first compound 0.02 µM", "value": 0.358}, {"measurement": "relative viability", "setting": "NCI-H2126; first compound 0.2 µM", "value": 0.344}, {"measurement": "relative viability", "setting": "NCI-H2126; first compound 0.6325 µM", "value": 0.363}, {"measurement": "relative viability", "setting": "NCI-H2126; first compound 2 µM", "value": 0.349}, {"measurement": "relative viability", "setting": "BEN; first compound 0.02 µM", "value": 0.513}, {"measurement": "relative viability", "setting": "BEN; first compound 0.2 µM", "value": 0.407}, {"measurement": "relative viability", "setting": "BEN; first compound 0.6325 µM", "value": 0.485}, {"measurement": "relative viability", "setting": "BEN; first compound 2 µM", "value": 0.435}, {"measurement": "relative viability", "setting": "LCLC-103H; first compound 0.02 µM", "value": 0.498}, {"measurement": "relative viability", "setting": "LCLC-103H; first compound 0.2 µM", "value": 0.389}, {"measurement": "relative viability", "setting": "LCLC-103H; first compound 0.6325 µM", "value": 0.479}, {"measurement": "relative viability", "setting": "LCLC-103H; first compound 2 µM", "value": 0.461}, {"measurement": "relative viability", "setting": "HCC-827; first compound 0.02 µM", "value": 0.507}, {"measurement": "relative viability", "setting": "HCC-827; first compound 0.2 µM", "value": 0.314}, {"measurement": "relative viability", "setting": "HCC-827; first compound 0.6325 µM", "value": 0.185}, {"measurement": "relative viability", "setting": "HCC-827; first compound 2 µM", "value": 0.167}, {"measurement": "relative viability", "setting": "NCI-H647; first compound 0.02 µM", "value": 0.383}, {"measurement": "relative viability", "setting": "NCI-H647; first compound 0.2 µM", "value": 0.239}, {"measurement": "relative viability", "setting": "NCI-H647; first compound 0.6325 µM", "value": 0.347}, {"measurement": "relative viability", "setting": "NCI-H647; first compound 2 µM", "value": 0.265}, {"measurement": "relative viability", "setting": "PC-14; first compound 0.02 µM", "value": 0.471}, {"measurement": "relative viability", "setting": "PC-14; first compound 0.2 µM", "value": 0.217}, {"measurement": "relative viability", "setting": "PC-14; first compound 0.6325 µM", "value": 0.0934}, {"measurement": "relative viability", "setting": "PC-14; first compound 2 µM", "value": 0.0848}, {"measurement": "relative viability", "setting": "LK-2; first compound 0.02 µM", "value": 0.496}, {"measurement": "relative viability", "setting": "LK-2; first compound 0.2 µM", "value": 0.405}, {"measurement": "relative viability", "setting": "LK-2; first compound 0.6325 µM", "value": 0.528}, {"measurement": "relative viability", "setting": "LK-2; first compound 2 µM", "value": 0.313}, {"measurement": "relative viability", "setting": "LXF-289; first compound 0.02 µM", "value": 0.621}, {"measurement": "relative viability", "setting": "LXF-289; first compound 0.2 µM", "value": 0.582}, {"measurement": "relative viability", "setting": "LXF-289; first compound 0.6325 µM", "value": 0.601}, {"measurement": "relative viability", "setting": "LXF-289; first compound 2 µM", "value": 0.571}, {"measurement": "relative viability", "setting": "ChaGo-K-1; first compound 0.02 µM", "value": 0.896}, {"measurement": "relative viability", "setting": "ChaGo-K-1; first compound 0.2 µM", "value": 0.533}, {"measurement": "relative viability", "setting": "ChaGo-K-1; first compound 0.6325 µM", "value": 0.92}, {"measurement": "relative viability", "setting": "ChaGo-K-1; first compound 2 µM", "value": 0.865}, {"measurement": "relative viability", "setting": "NCI-H1437; first compound 0.02 µM", "value": 0.355}, {"measurement": "relative viability", "setting": "NCI-H1437; first compound 0.2 µM", "value": 0.337}, {"measurement": "relative viability", "setting": "NCI-H1437; first compound 0.6325 µM", "value": 0.455}, {"measurement": "relative viability", "setting": "NCI-H1437; first compound 2 µM", "value": 0.308}, {"measurement": "relative viability", "setting": "RERF-LC-KJ; first compound 0.02 µM", "value": 1.05}, {"measurement": "relative viability", "setting": "RERF-LC-KJ; first compound 0.2 µM", "value": 1.05}, {"measurement": "relative viability", "setting": "RERF-LC-KJ; first compound 0.6325 µM", "value": 1.01}, {"measurement": "relative viability", "setting": "RERF-LC-KJ; first compound 2 µM", "value": 1.06}]}
